Consider 63 molecules from a melting point compilation (Tetko et al.; mined from patent text by program, amines drawn as free bases though some values may be those of a salt).

Molecules are shown by their SMILES.

The term melting point denotes the temperature of the solid-liquid transition.

In the case of `O=C1CC(c2cccs2)=Nc2ccc(-c3ccc(=O)[nH]c3)cc2N1`, the melting point is more than 250 °C.

`O=S1(=O)NCN(C2CCCCC2)c2ccc(Cl)cc21`: the melting point is 233 to 235 °C.

In the case of `Clc1cc(CC(Cl)Cl)cnc1Cl`, the melting point is 89 to 90 °C.

Molecule `CC(C)COc1ccc(-c2ccc3nnn(Cc4ccc5ccccc5n4)c3n2)cc1F` yielded a melting point of 115 to 157 °C.

Regarding `Nc1cccc(OCCCN2CCC(c3noc4cc(F)ccc34)CC2)c1`, the melting point fell in the range of 115 to 117 °C.

`CCCN1CCN(Cc2ccc3c(c2)-c2[nH]nc(-c4ccsc4)c2C3)CC1` showed a melting point of 185 to 187 °C.

Molecule `CNC(=O)Cc1c(C(=O)c2ccccc2)[nH]c2cc(Cl)ccc12` registered a melting point of 242 to 246 °C.

Molecule `CNC(=S)Nc1cc(Cl)ccc1C` showed a melting point of 139 to 140 °C.

Take `CN(C1CCNCC1)S(=O)(=O)c1ccc(Nc2nccc(-c3ccc(F)cc3)n2)cc1`: the melting point is 116 °C.

The molecule `Cc1ccc(C(=O)NC(NC(=O)Nc2ccccc2F)C(Cl)(Cl)Cl)cc1` (stereo not drawn) gave a melting point of 257 to 259 °C.

Molecule `Nc1ccccc1-c1nc2ccccc2c(=O)o1` registered a melting point of 163 to 165 °C.

Consider `CC(C)(C)NCC(O)COc1cccc2nc[nH]c12` (stereo not drawn), for which the melting point lay within 203 to 205 °C.

With `CCCCCCCOc1ccc(-c2ccc(OCC(C)CC)nn2)cc1` (stereo not drawn), the melting point worked out at 91 °C.

In turn, `COc1cc(C(C)C)cc(OC)c1-c1nc(N)sc1CCC1CCCCC1` came in with a melting point of 143 °C.

With `Oc1cc(C(F)(F)F)nn1-c1ccc(Cl)cn1`, the melting point lay in the range of 58 to 59 °C.

Molecule `CCCCCNC1=CC(=O)C(=O)c2ccccc21` registered a melting point of more than 215 °C.

`CC(=O)NC(Cc1cc(F)c(F)cc1F)Cc1nnc2n1ccc1ncnn12` (stereo not drawn) registered a melting point of 233 to 235 °C.

`COc1ccc(-c2[nH]cc(C(C)=O)c2N)cc1` displayed a melting point of 198 to 200 °C.

`Cc1cc2cc(CN3CCC(CC(N)=O)CC3)cnc2cc1NC(=O)c1ccc(-c2ccc(F)cc2)cc1`: the melting point stood at 249 °C.

Molecule `CC(C)Nc1cccnc1N1CCN(C(=O)c2cc3cc(NC(=O)N4CCN(C)CC4)ccc3[nH]2)CC1` had a melting point of 200 °C.

`O=S(=O)(NN=C(Cl)c1cc(Cl)ccc1Cl)c1ccccc1` had a melting point of 133 to 135 °C.

For the molecule `CCC(=O)c1ccc(=O)[nH]c1C`, the melting point was 173 to 175 °C.

With `CCOC(=O)CCCNc1ccc(OCC(C)(C)C)c(C#N)c1`, the melting point was 88 °C.

As for `O=C(O)C1CCN(c2nnc(NCc3ccc4c(c3)OCO4)c3ccncc23)CC1`, the melting point is 138 to 140 °C.

Molecule `CCC(CC)Nc1cc(C)nc(Oc2c(C)cc(C)cc2C)c1N` had a melting point of 105 to 107 °C.

With `O=C1c2ccccc2S(=O)(=O)N1CF`, the melting point was in the range of 96 to 98 °C.

As to `CC(=O)C(=Cc1cccc([N+](=O)[O-])c1)C(=O)OC(C)CCl` (stereo not drawn), the melting point was in the range of 95 to 96 °C.

`CCN(C(=O)Nc1ccccc1)c1cccc(-c2ccc(CC3SC(=O)NC3=O)cc2)c1` (stereo not drawn) returned a melting point of 186 °C.

`O=C(O)COc1ccc2c(c1)OCO2` displayed a melting point of 149 to 151 °C.

`CC(=O)NC(Cl)CCC(=O)c1ccccc1` (stereo not drawn) had a melting point of 157 to 163 °C.

`Cc1c(NC(=O)CC(C)(C)C)c(C)c2c(C)coc2c1Cc1ccc(C(C)C)cc1` registered a melting point of 171 to 172 °C.

Molecule `Fc1cc(-c2ccc3nnn(Cc4ccc5ncccc5c4)c3n2)ccc1OC1CCOCC1` showed a melting point of 165 to 167 °C.

In turn, `O=C(N1CCNCC1)N1CCC(c2ccncc2)CC1` showed a melting point of 116 to 117 °C.

`O=C(CN1C(=O)c2ccccc2C1=O)N1CCN(C(=O)c2cc(C(F)(F)F)cc(C(F)(F)F)c2)[C@H](Cc2c[nH]c3ccccc23)C1` came in with a melting point of more than 220 °C.

As to `CN(C)C=Nc1ccc(-c2ncnn2-c2ccc(F)cc2)cc1`, the melting point lay within 159 to 161 °C.

`COC(COC1CC2C3CCC4=CC(=O)CCC4(C)C3(F)C(O)CC2(C)C1(O)C(=O)CO)OC` (stereo not drawn) came in with a melting point of 192 to 194 °C.

On to `COc1ccccc1CCNC(=O)c1ccc2c(c1)C=CC(C)(C)O2`, for which the melting point was 125 to 130 °C.

For `Cc1cccc2c3c([nH]c12)CCNC3=O`, the melting point lay in the range of 300 to 302 °C.

With `O=C(NC1CCCCC1)OCc1ccccc1[N+](=O)[O-]`, the melting point lay within 101 to 102 °C.

The molecule `CCOC(=O)Cc1[nH]c(C(=O)OC(C)(C)C)c(CCc2cccc(Cl)c2)c1C(=O)OCC` gave a melting point of 131 to 132 °C.

On to `CC(C)(C)Sc1c(CC(C)(C)C(=O)O)n(Cc2ccc(Cl)cc2)c2ccc(OCc3cnc4ccccc4n3)cc12`, for which the melting point fell in the range of 216 to 219 °C.

The molecule `CC(C)c1cccc(C(C)C)c1NC(=O)CN1CC2(CCCCC2)N(c2ccccc2)S1(=O)=O` gave a melting point of 140 to 142 °C.

For the molecule `CCCCOc1nc(N)c2[nH]c(=O)n(CCCNCc3cccc(C(=O)OC)c3)c2n1`, the melting point is 214 to 218 °C.

In turn, `O=c1oc2cc(O)cc(O)c2c(O)c1C1c2ccccc2Oc2c1c(=O)oc1cc(O)cc(O)c21` (stereo not drawn) showed a melting point of more than 300 °C.

As for `Cc1cccc(NC(=O)c2ccn3c2CSC3c2cccnc2)n1` (stereo not drawn), the melting point is 162 °C.

Regarding `CCOC(=O)NC[C@H]1CN(c2ccc3c(c2)CCCc2cn[nH]c2-3)C(=O)O1`, the melting point was 122 to 126 °C.

Molecule `CC=C(c1ccc(F)cc1)c1ccc(F)cc1` showed a melting point of 43 to 44 °C.

The molecule `COc1cc(Nc2c(C#N)cnc3cc(NC(C)=O)c(OC)cc23)c(Cl)cc1Cl` displayed a melting point of 267 to 270 °C.

In turn, `COc1ccc(N2CCOCC2)c2sc(-c3nc4c([nH]3)CCN(C(=O)OC(C)(C)C)CC4)nc12` came in with a melting point of 120 °C.

`O=C(Nc1cccc2cc(Br)cnc12)C1c2ccccc2-c2ccccc21` showed a melting point of 196 to 198 °C.

Molecule `CC(=O)OC1CC(C)(C)N(OC(C)=O)C(C)(C)C1` gave a melting point of 72 to 73 °C.

In the case of `CCOC(=O)C1=C(C(F)(F)F)Nc2n[nH]cc2C1c1ccc(C(=O)OCC)cc1` (stereo not drawn), the melting point was 157 to 160 °C.

As to `O=C(Cc1ccc2ccn(C3CCN(CCc4ccc(F)cc4)CC3)c2c1)NCC1OCCO1`, the melting point lay in the range of 118 to 119 °C.

Take `CC(C)[C@H](OCc1ccccc1F)[C@H]1[C@H]([N+](=O)[O-])[C@H](c2ccccc2)N[C@@H]1C(=O)NCC(=O)O`: the melting point is 72 to 73 °C.

Regarding `COC(=O)c1cccc(N)c1N`, the melting point fell in the range of 62 to 63 °C.

`CCc1ncc2c3c(ccc2n1)OCC(CN1CC=C(c2c[nH]c4ccccc24)CC1)O3` (stereo not drawn) yielded a melting point of 203 to 211 °C.

In the case of `O=C(CNc1ccc(O)cc1)N1CCC(Cc2ccc(F)cc2)CC1`, the melting point lay in the range of 155 to 157 °C.

As to `CCOC(=O)c1c(CN(C)C2CCCCC2)nc2cc(OC)c(OC)cc2c1-c1ccc(OC)c(OC)c1`, the melting point lay in the range of 172 to 174 °C.

`N#Cc1cc(F)c(-n2c(=O)cc(C(F)(F)F)[nH]c2=O)cc1Oc1ccc2ccccc2c1`: the melting point turned out to be 92 °C.

`COc1ccc(C=N[C@H]2C(O)O[C@H](CO)[C@@H](O)[C@@H]2O)cc1` (stereo partly drawn): the melting point is 165 °C.

`CCCN(CCC)CCOc1ccc2[nH]c(C)c(C(=O)OCc3ccccc3)c2c1` returned a melting point of 123 to 125 °C.

The molecule `c1ccc(COc2ccc(-c3ccc(OCCCN4CCCCC4)cc3)nn2)cc1` registered a melting point of 138 °C.

Regarding `COc1ccc2c(=O)cc(C(OC)OC)oc2c1`, the melting point fell in the range of 99 to 101 °C.
